The first assay has as its target Human VPS34 (Homo sapiens (Human), UniProt Q8NEB9). Put plainly: Human VPS34 enzyme assay (Adapta TR-FRET). The assay is classed as biochemical. Particulars: IC50 range class. A general note: In TR-FRET formats the signal depends on donor and acceptor labels being close together.
Human VPS34, sequence (Q8NEB9 whole entry): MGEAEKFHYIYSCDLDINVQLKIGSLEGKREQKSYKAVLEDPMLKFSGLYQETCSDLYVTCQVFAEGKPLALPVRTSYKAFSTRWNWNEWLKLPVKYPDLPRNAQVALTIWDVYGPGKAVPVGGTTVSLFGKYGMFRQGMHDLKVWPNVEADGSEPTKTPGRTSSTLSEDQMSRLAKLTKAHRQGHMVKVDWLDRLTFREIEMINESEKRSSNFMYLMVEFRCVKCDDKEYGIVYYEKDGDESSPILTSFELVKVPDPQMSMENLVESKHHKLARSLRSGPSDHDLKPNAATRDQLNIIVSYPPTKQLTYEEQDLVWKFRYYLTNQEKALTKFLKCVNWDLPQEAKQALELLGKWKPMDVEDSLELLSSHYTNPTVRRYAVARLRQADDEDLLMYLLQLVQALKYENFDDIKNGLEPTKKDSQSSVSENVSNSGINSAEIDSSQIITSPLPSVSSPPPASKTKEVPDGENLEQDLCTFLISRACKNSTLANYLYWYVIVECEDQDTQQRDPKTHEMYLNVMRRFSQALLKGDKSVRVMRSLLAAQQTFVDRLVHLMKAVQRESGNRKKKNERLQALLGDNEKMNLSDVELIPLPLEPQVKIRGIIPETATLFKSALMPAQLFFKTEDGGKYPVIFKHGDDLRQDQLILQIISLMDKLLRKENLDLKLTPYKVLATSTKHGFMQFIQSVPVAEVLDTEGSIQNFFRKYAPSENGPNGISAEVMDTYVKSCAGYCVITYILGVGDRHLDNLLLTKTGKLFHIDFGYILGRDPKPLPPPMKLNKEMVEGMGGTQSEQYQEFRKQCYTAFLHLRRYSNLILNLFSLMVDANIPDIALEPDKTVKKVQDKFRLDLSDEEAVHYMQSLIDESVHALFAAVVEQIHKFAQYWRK
Regarding `CC(=O)Nc1cc(-c2cnc(N)c(NS(=O)(=O)c3ccc(F)cc3F)c2)ccn1` [Compound I-64, N-(6-amino-5-{[(2,4-difluorophenyl)sulfonyl]amino}-3,4′-bipyridin-2′-yl)acetamide], the half-maximal inhibitory concentration (IC50) (as a rule, the concentration that inhibits the measured activity by half) is below 10 nM.

Staying with this assay, now noted: compound concentration 1.11 μM.
With `CC(=O)Nc1cc(-c2cnc(N)c(S(=O)(=O)NCC(C)C)c2)ccn1` [Compound I-73, N-[6-amino-5-(isobutylsulfamoyl)-3,4′-bipyridin-2′-yl]acetamide], the “Percent Inhibition” value is listed as above 99%.

The assay is the same for the next values; noted with them: compound concentration 1.11 μM; read-out: Percent Inhibition.
Regarding `CC(=O)Nc1cc(-c2cnc3[nH]cc(S(=O)(=O)N(C)C)c3c2)ccn1` [Compound I-40, N-{4-[3-(dimethylsulfamoyl)-1H-pyrrolo[2,3-b]pyridin-5-yl]pyridin-2-yl}acetamide], the inhibition – broadly, the relative decrease from the control value, in per cent – at 1.11 µM was above 99%. Still for that read-out and setting: the figure for `CC(=O)Nc1cc(-c2cnc(C)c(NS(=O)(=O)c3ccc(F)cc3F)c2)ccn1` [Compound I-41, N-(5-{[(2,4-difluorophenyl)sulfonyl]amino}-6-methyl-3,4′-bipyridin-2′-yl)acetamide] is above 99%; for `COC(=O)Nc1cc(-c2cnc3ccn(CC4CC4)c3c2)ccn1` [Compound I-42, Methyl {4-[1-(cyclopropylmethyl)-1H-pyrrolo[3,2-b]pyridin-6-yl]pyridin-2-yl}carbamate] it is above 99%. On the same count and under the same terms, in the case of `CC(=O)Nc1cc(-c2cnc(N)c(S(=O)(=O)Nc3ccccc3)c2)ccn1` [Compound I-43, N-[6-amino-5-(phenylsulfamoyl)-3,4′-bipyridin-2′-yl]acetamide] it was above 99%; in that of `CCc1ccc(S(=O)(=O)Nc2cc(-c3ccnc(NC(C)=O)c3)cnc2C)cc1` [Compound I-44, N-(5-{[(4-ethylphenyl)sulfonyl]amino}-6-methyl-3,4′-bipyridin-2′-yl)acetamide], above 99%. Regarding `CC(=O)Nc1cc(-c2cnc(C)c(NS(=O)(=O)c3cccnc3)c2)ccn1` [Compound I-45, N-{6-methyl-5-[(pyridin-3-ylsulfonyl)amino]-3,4′-bipyridin-2′-yl}acetamide], the inhibition at 1.11 µM is above 99%. Still for that read-out and setting: the figure for `CC(=O)Nc1cc(-c2cnc(C)c(N(C)S(=O)(=O)c3ccccc3)c2)ccn1` [Compound I-46, N-{6-methyl-5-[methyl(phenylsulfonyl)amino]-3,4′-bipyridin-2′-yl}acetamide] is above 99%; for `CC(=O)Nc1cc(-c2cncc(S(=O)(=O)N3CCCC3)c2)ccn1` [Compound I-47, N-[5-(pyrrolidin-1-ylsulfonyl)-3,4′-bipyridin-2′-yl]acetamide] it is above 99%; for `CC(=O)Nc1cc(-c2cncc(C(=O)N(C)C)c2)ccn1` [Compound I-48, 2′-acetamido-N,N-dimethyl-3,4′-bipyridine-5-carboxamide] it is above 99%. In the case of `CC(=O)Nc1cc(-c2cnc(N)c(S(=O)(=O)NCC3CC3)c2C)ccn1` [Compound I-49, N-{6-amino-5-[(cyclopropylmethyl)sulfamoyl]-4-methyl-3,4′-bipyridin-2′-yl}acetamide], the inhibition at 1.11 µM is above 99%. As to `CC(=O)Nc1cc(-c2cnc(N)c(S(=O)(=O)Cc3ccccc3C(F)(F)F)c2)ccn1` [Compound I-50, N-(6-amino-5-{[2-(trifluoromethyl)benzyl]sulfonyl}-3,4′-bipyridin-2′-yl)acetamide], the inhibition at 1.11 µM was above 99%. In the case of `CC(=O)Nc1cc(-c2cncc(S(C)(=O)=O)c2)ccn1` [Compound I-51, N-[5-(methylsulfonyl)-3,4′-bipyridin-2′-yl]acetamide], the inhibition at 1.11 µM amounted to 91%.

Take `CC(=O)Nc1cc(-c2cnc(C)c(NS(=O)(=O)c3cc(F)ccc3F)c2)ccn1` [Compound I-52]: the inhibition at 1.11 µM was above 99%. The same measure, in the same setting: the figure for `CC(=O)Nc1cc(-c2cnc(NCC3CC3)c(N)c2)ccn1` [Compound I-53, N-{5-amino-6-[(cyclopropylmethyl)amino]-3,4′-bipyridin-2′-yl}acetamide] is 67%; for `CC(=O)Nc1cc(-c2cnc3[nH]cc(CN4CCCC4)c3c2)ccn1` [Compound I-54, N-{4-[3-(pyrrolidin-1-ylmethyl)-1H-pyrrolo[2,3-b]pyridin-5-yl]pyridin-2-yl}acetamide] it is 83%; for `COC(=O)Nc1cc(-c2cnc(N)c(C(=O)N(C)C)c2)ccn1` [Compound I-55, methyl [6-amino-5-(dimethylcarbamoyl)-3,4′-bipyridin-2′-yl]carbamate] it is above 99%. In the case of `CC(=O)Nc1cc(-c2cnc(Cl)c(NS(=O)(=O)c3ccccc3)c2)c(C)cn1` [Compound I-56, N-{6-chloro-5′-methyl-5-[(phenylsulfonyl)amino]-3,4′-bipyridin-2′-yl}acetamide], the inhibition at 1.11 µM was above 99%. On the same count and under the same terms, the figure for `CNC(=O)c1cc(-c2ccnc(NC(C)=O)c2)cnc1N` [Compound I-57, 2′-acetamido-6-amino-N-methyl-3,4′-bipyridine-5-carboxamide] is above 99%.

Consider `COc1cc(F)ccc1S(=O)(=O)Nc1cc(-c2ccnc(NC(C)=O)c2)cnc1C` [Compound I-58, N-(5-{[(4-fluoro-2-methoxyphenyl)sulfonyl]amino}-6-methyl-3,4′-bipyridin-2′-yl)acetamide], for which the inhibition at 1.11 µM is above 99%. On the same count and under the same terms, the figure for `CC(=O)Nc1cc(-c2cnc(C)c(NS(=O)(=O)c3ccc(F)c(F)c3)c2)ccn1` [Compound I-59, N-(5-{[(3,4-difluorophenyl)sulfonyl]amino}-6-methyl-3,4′-bipyridin-2′-yl)acetamide] is above 99%; for `CC(=O)Nc1cc(-c2cnc(N)c(C(=O)N3CCC(F)(F)C3)c2)ccn1` [Compound I-60, N-{6-amino-5-[(3,3-difluoropyrrolidin-1-yl)carbonyl]-3,4′-bipyridin-2′-yl}acetamide] it is above 99%; for `CC(=O)Nc1cc(-c2cnc(N)c(S(N)(=O)=O)c2)ccn1` [Compound I-61, N-(6-amino-5-sulfamoyl-3,4′-bipyridin-2′-yl)acetamide] it is 95%. Same read-out and setting: in the case of `CC(=O)Nc1cc(-c2cnc(C)c(NS(=O)(=O)c3ccccc3C(F)(F)F)c2)ccn1` [Compound I-62, N-[6-methyl-5-({[2-(trifluoromethyl)phenyl]sulfonyl}amino)-3,4′-bipyridin-2′-yl]acetamide] it was above 99%; in that of `CNc1ncc(-c2ccnc(NC(C)=O)c2)cc1S(=O)(=O)Nc1ccc(F)cc1F` [Compound I-63, N-{5-[(2,4-difluorophenyl)sulfamoyl]-6-(methylamino)-3,4′-bipyridin-2′-yl}acetamide], above 99%; in that of `CC(=O)Nc1cc(-c2cnc(N)c(NS(=O)(=O)c3ccc(F)cc3F)c2)ccn1` [Compound I-64, N-(6-amino-5-{[(2,4-difluorophenyl)sulfonyl]amino}-3,4′-bipyridin-2′-yl)acetamide], above 99%. Still for that read-out and setting: the figure for `CC(=O)Nc1cc(-c2cnc(NCC3CC3)c(NCC3CC3)c2)ccn1` [Compound I-65, N-{5,6-bis[(cyclopropylmethyl)amino]-3,4′-bipyridin-2′-yl}acetamide] is 93%. Turning to `CC(=O)Nc1cc(-c2cnc3[nH]c(C)nc3c2)ccn1` [Compound I-66, N-[4-(2-methyl-3H-imidazo[4,5-b]pyridin-6-yl)pyridin-2-yl]acetamide], the inhibition at 1.11 µM was 88%.

Turning to `CC(=O)Nc1cc(-c2cnc3c(c2)CCN3)ccn1` [Compound I-67, N-[4-(2,3-dihydro-1H-pyrrolo[2,3-b]pyridin-5-yl)pyridin-2-yl]acetamide], the inhibition at 1.11 µM was above 99%.

With `CC(=O)Nc1cc(-c2cnc3c(c2)NS(=O)(=O)N3CC2CC2)ccn1` [Compound I-68, N-{4-[3-(cyclopropylmethyl)-2,2-dioxido-1,3-dihydro[1,2,5]thiadiazole[3,4-b]pyridin-6-yl]pyridin-2-yl}acetamide], the inhibition at 1.11 µM was 98%. Same read-out and setting: the figure for `CCS(=O)(=O)c1cc(-c2ccnc(NC(C)=O)c2)cnc1N` [Compound I-69, N-[6-amino-5-(ethylsulfonyl)-3,4′-bipyridin-2′-yl]acetamide] is above 99%. Same read-out and setting: the figure for `CC(=O)Nc1cc(-c2cnc(C)c(NS(=O)(=O)c3cccc(C(C)(C)C)c3)c2)ccn1` [Compound I-70, N-(5-{[(3-tert-butylphenyl)sulfonyl]amino}-6-methyl-3,4′-bipyridin-2′-yl)acetamide] is above 99%; for `CC(=O)Nc1cc(-c2cnc(N)c(C(=O)N3CCc4ccccc43)c2)ccn1` [Compound I-71, N-[6-amino-5-(2,3-dihydro-1H-indol-1-ylcarbonyl)-3,4′-bipyridin-2′-yl]acetamide] it is above 99%; for `CC(=O)Nc1cc(-c2cnc(C)c(NS(=O)(=O)C3CCCCC3)c2)ccn1` [Compound I-72, N-{5-[(cyclohexylsulfonyl)amino]-6-methyl-3,4′-bipyridin-2′-yl}acetamide] it is above 99%. Turning to `COc1ccccc1S(=O)(=O)Nc1cc(-c2ccnc(NC(C)=O)c2)cnc1C` [Compound I-74, N-(5-{[(2-methoxyphenyl)sulfonyl]amino}-6-methyl-3,4′-bipyridin-2′-yl)acetamide], the inhibition at 1.11 µM was above 99%. The same measure, in the same setting: in the case of `CC(=O)Nc1cc(-c2cnc(C)c(C(=O)N(C)C)c2)ccn1` [Compound I-75, 2′-acetamido-N,N,6-trimethyl-3,4′-bipyridine-5-carboxamide] it was above 99%; in that of `CC(=O)Nc1cc(-c2cnc(N)c(S(=O)(=O)N(C)Cc3ccccc3)c2)ccn1` [Compound I-76], above 99%; in that of `CC(=O)Nc1cc(-c2cnc(N)c(S(=O)(=O)N(C(C)C)C(C)C)c2)ccn1` [Compound I-77, N-[6-amino-5-(diisopropylsulfamoyl)-3,4′-bipyridin-2′-yl]acetamide], above 99%. The same measure, in the same setting: in the case of `CC(=O)Nc1cc(-c2cnc(C)c(NS(=O)(=O)c3cccc4ccccc34)c2)ccn1` [Compound I-78, N-{6-methyl-5-[(1-naphthylsulfonyl)amino]-3,4′-bipyridin-2′-yl}acetamide] it was above 99%. Same read-out and setting: the figure for `CC(=O)Nc1cc(-c2cnc(N)c(C(=O)N3CCN(C)CC3)c2)ccn1` [Compound I-79, N-{6-amino-5-[(4-methylpiperazin-1-yl)carbonyl]-3,4′-bipyridin-2′-yl}acetamide] is above 99%.

The values are drawn from US9802960B2 (MILLENNIUM PHARMACEUTICALS, INC., priority 2014, dated 2017).
